Experimental data reported in patent US20240058422A1, “GLUCAGON-LIKE PEPTIDE-1 RECEPTOR ANTAGONISTS” (INDIANA UNIVERSITY RESEARCH AND TECHNOLOGY CORPORATION, priority 2022, published 2024).
Entries after “also recorded” stand apart in the source; their conditions may differ. Read-outs that look alike come from different tables or passages of the source. Starred links: 1 amine or outer side, 2 acyl side, 3 side chain; linkers in the order of their positions; H or OH if unused. Non-standard residues stand in square brackets, D forms with d. Residues, ends and D or L forms follow the SMILES beside them. Groups on a side chain read outwards from the residue. No end group written: not given here. *: point of attachment. miniPEG = miniature polyethylene glycol spacer (mPEG); C18 diacid = O=C(O)CCCCCCCCCCCCCCCCC(=O)*; γGlu = O=C(O)[C@H](CCC(=O)[*:2])N[*:1]; Palmitoyl = CCCCCCCCCCCCCCCC(=O)*; pGlu = O=C1CC[C@@H](C(=O)O)N1

Assays:
GLP-1R [1] = target: T1, GLP-1R (Homo sapiens, UniProt P43220); test: IC50 nM; design: host or cells: HEK 293
Description: Table printed on a drawing sheet, Fig. 10
Head of the field: IC50 nM
Where the first naming reader finds the target: description_of_the_figure: as measured in an in vitro assay using GLP-1R over-expressing 293 cells
Target sequence in this assay (P43220 24-463 limits assumed): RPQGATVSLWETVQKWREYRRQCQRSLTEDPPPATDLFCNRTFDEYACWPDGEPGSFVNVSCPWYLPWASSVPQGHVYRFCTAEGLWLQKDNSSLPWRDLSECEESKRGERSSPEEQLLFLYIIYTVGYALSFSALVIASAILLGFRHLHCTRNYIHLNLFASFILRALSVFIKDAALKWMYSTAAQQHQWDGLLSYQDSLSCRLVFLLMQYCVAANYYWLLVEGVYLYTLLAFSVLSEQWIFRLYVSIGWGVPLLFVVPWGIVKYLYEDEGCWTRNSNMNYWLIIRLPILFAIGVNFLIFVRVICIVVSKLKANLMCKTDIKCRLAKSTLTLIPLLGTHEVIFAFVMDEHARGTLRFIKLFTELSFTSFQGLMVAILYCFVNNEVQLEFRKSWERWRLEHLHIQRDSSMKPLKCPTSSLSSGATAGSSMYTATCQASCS

mice [2] = test: Glucose tolerance test after subcutaneous GLP-1 antagonist; assay type: in vivo; details: s.c. antagonist, 4 h later i.p. glucose 1.5 g/kg, FIGS. 2A, 2B
Description: FIGS. 2A & 2B present data from a glucose tolerance test wherein mice are subcutaneously administered the GLP-1 antagonist followed four hours later by intraperitoneal administration of glucose (1.5 g glucose per kg body weight).
C57Bl/6 mice were obtained from Jackson Laboratories. Mice were single-or group-housed on a 12:12 h light-dark cycle at 22° C. with free access to food and water. All studies were approved by and performed according to the guidelines of the Institutional Animal Care and Use Committee of the University of Cincinnati.
For the determination of glucose tolerance, mice were subjected to 6 h of fasting and injected intraperitoneally with glucose. Injections consisted of 1.5 g glucose per kg body weight (25% w/v D-glucose (Sigma) in 0.9% w/v saline). Tail blood glucose levels (mg dL-1) were measured using a hand-held glucometer (FreeStyle Freedom Lite) before 0 min and at 15, 30, 60, and 120 min after injection.
Mice received a subcutaneous injection of peptide (in PBS) either 1, 4, 8, 24, 48, 72, or 120 at varying doses before being challenged with an IP injection of dipeptidyl peptidase-IV-protected Ex-4 (0.65 nmol kg-1). A GTT was performed fifteen minutes after the GLP-1 injection. Tail blood glucose values were obtained as described above.

GLP-1R [3] = target: T1, GLP-1R; details: after site-specific acylation of the human-based antagonist; cited from earlier work
Target sequence in this assay (P43220 24-463, species assumed): as the sequence (P43220 24-463 limits assumed) above

GIP receptor = target: T2, GIP receptor (Homo sapiens, UniProt P48546); details: GLP-1 receptor versus GIP receptor; cited from earlier work
T2 sequence (P48546 22-466): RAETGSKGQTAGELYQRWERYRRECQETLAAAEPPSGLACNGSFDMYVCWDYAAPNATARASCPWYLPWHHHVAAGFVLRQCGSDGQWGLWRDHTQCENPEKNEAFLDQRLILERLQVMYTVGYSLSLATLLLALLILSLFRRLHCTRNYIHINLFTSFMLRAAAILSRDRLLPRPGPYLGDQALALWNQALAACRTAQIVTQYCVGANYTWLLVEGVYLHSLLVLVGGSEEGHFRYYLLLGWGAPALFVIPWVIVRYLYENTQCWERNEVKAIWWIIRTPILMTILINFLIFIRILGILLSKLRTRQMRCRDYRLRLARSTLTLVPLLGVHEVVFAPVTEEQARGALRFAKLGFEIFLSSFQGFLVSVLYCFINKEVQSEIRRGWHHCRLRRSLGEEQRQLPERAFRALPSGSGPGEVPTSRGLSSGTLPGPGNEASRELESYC

mice [4] = test: Blood glucose levels in mice subcutaneously injected with GLP-1 antagonist; assay type: in vivo; details: s.c. 10, 30, 100, 300 nmol/kg, measured at 24, 48, 72 hrs, FIG. 8
Excerpt: over time, where X=C18-diacid and O=Lys(C18-diacid).

human GLP-1 receptor = human GLP-1 receptor (human, UniProt P43220 24-463); test: cell-based or functional assay

CC[C@H](C)[C@H](NC(=O)[C@H](Cc1ccccc1)NC(=O)[C@H](CCC(=O)O)NC(=O)[C@H](CCCNC(=N)N)NC(=O)[C@@H](NC(=O)[C@H](C)NC(=O)[C@H](CCC(N)=O)NC(=O)[C@H](CCC(=O)O)NC(=O)[C@H](CCC(=O)O)NC(=O)[C@H](CC(C)C)NC(=O)[C@H](Cc1ccc(O)cc1)NC(=O)[C@H](CO)NC(=O)[C@H](CO)NC(=O)[C@@H](NC(=O)[C@H](CC(=O)O)NC(=O)CNC(=O)[C@H](CCCCNC(=O)CCCCCCCCCCCCCCCCC(=O)O)NC(=O)[C@@H]1CCC(=O)N1)C(C)C)C(C)C)C(=O)N[C@@H](C)C(=O)N[C@@H](Cc1c[nH]c2ccccc12)C(=O)N[C@@H](CC(C)C)C(=O)N[C@H](C(=O)N[C@@H](CCCNC(=N)N)C(=O)NCC(=O)NCC(=O)N1CCC[C@H]1C(=O)N[C@@H](CO)C(=O)N[C@@H](CO)C(=O)NCC(=O)N[C@@H](C)C(=O)N1CCC[C@H]1C(=O)N1CCC[C@H]1C(=O)N1CCC[C@H]1C(=O)N[C@@H](CO)C(=O)O)C(C)C [compound 1417] ([pGlu]K(C18 diacid)GDVSSYLEEQAVREFIAWLVRGGPSSGAPPPS-OH)
IC50 (GLP-1R [1]): 80 nM

CC[C@H](C)[C@H](NC(=O)[C@H](Cc1ccccc1)NC(=O)[C@H](CCC(=O)O)NC(=O)[C@H](CCCNC(=N)N)NC(=O)[C@@H](NC(=O)[C@H](C)NC(=O)[C@H](CCC(N)=O)NC(=O)[C@H](CCC(=O)O)NC(=O)[C@H](CCC(=O)O)NC(=O)[C@H](CC(C)C)NC(=O)[C@H](Cc1ccc(O)cc1)NC(=O)[C@H](CO)NC(=O)[C@H](CO)NC(=O)[C@@H](NC(=O)[C@H](CC(=O)O)NC(=O)[C@@H]1CCC(=O)N1)C(C)C)C(C)C)C(=O)N[C@@H](C)C(=O)N[C@@H](Cc1c[nH]c2ccccc12)C(=O)N[C@@H](CC(C)C)C(=O)N[C@H](C(=O)N[C@@H](CCCNC(=N)N)C(=O)NCC(=O)NCC(=O)N1CCC[C@H]1C(=O)N[C@@H](CO)C(=O)N[C@@H](CO)C(=O)NCC(=O)N[C@@H](C)C(=O)N1CCC[C@H]1C(=O)N1CCC[C@H]1C(=O)N1CCC[C@H]1C(=O)N[C@@H](CO)C(=O)N[C@@H](CCCCNC(=O)CCCCCCCCCCCCCCCCC(=O)O)C(=O)O)C(C)C [compound 1418, Z DVSSYLEEQAVREFIAWLVRGGPSSGAPPPSO-acid] ([pGlu]DVSSYLEEQAVREFIAWLVRGGPSSGAPPPSK(C18 diacid)-OH)
IC50 (GLP-1R [1]; read-out: IC50): 67 nM

DVSRYLEEQAVREFIEWLVRGGPSSGAPPPSK[miniPEG-γE-C16]-OH (DVSRYLEEQAVREFIEWLVRGGPSSGAPPPSK([miniPEG-γGlu-Palmitoyl])-OH) [SEQ ID NO: 16]
GLP-1 antagonist activity in glucose tolerance test (mice [2]): full antagonist; also recorded: much higher potency than the GLP-1 antagonist Ex-9-40

DVSSYLEEQAVREFIAWLVKGGPSSGAPPPSK[C16]-OH (DVSSYLEEQAVREFIAWLVKGGPSSGAPPPSK(Palmitoyl)-OH) [SEQ ID NO: 3]
potency as a GLP-1 receptor antagonist (GLP-1R [3]): increased potency
selectivity relative to the GIP receptor (GIP receptor): 10 fold

X-DVSSYLEEQAVREFIAWLVRGGPSSGAPPPSO-acid [MBX 1407]
glucose blood levels (mice [4]): dose dependent response

XGDLSKQMEEEAVRLFIEWLKNGGPSSGAPPPS (dK at position 7 acylated with Peg2-gE(C16); C-terminal amide (-NH2)) [Ex9-39amide, dK7 (PEG2-γE(C16)), G8]
IC50 (nM): block of cAMP induction by GLP-1 (0.05 nM), luciferase reporter in HEK 293 cells with human GLP-1 receptor (human GLP-1 receptor): 6.2 nM
